{"source": "patent US9284272B2", "about": "“Inhibitors of histone methyltransferase G9a” (AbbVie Inc., priority 2014, dated 2016)", "key": {"[1]": {"system": "H3K9me2", "assay": "H3K9me2 levels by AlphaLISA in HT1080 cells", "format": "cell-based", "conditions": "48 h, 0-1,000 nM"}, "[2]": {"assay": "Cytotoxicity, CellTiter Glo", "format": "cell-based", "conditions": "human, PA-1 cells, 7-day proliferation, neural crest derived lines"}, "[3]": {"assay": "Cytotoxicity, CellTiter Glo", "format": "cell-based", "conditions": "human, SK-N-MC cells, 7-day proliferation, neural crest derived lines"}, "[4]": {"assay": "Cytotoxicity, CellTiter Glo", "format": "cell-based", "conditions": "human, KMS12 cells, 5-day proliferation"}, "[5]": {"assay": "Cytotoxicity, CellTiter Glo", "format": "cell-based", "conditions": "human, CAPO-ES1 cells, 7-day proliferation, neural crest derived lines"}, "[6]": {"assay": "Cytotoxicity, CellTiter Glo", "format": "cell-based", "conditions": "human, G-401 cells, 7-day proliferation, neural crest derived lines"}, "[7]": {"assay": "Cytotoxicity, CellTiter Glo", "format": "cell-based", "conditions": "human, HL-60 cells, 5-day proliferation"}, "[8]": {"assay": "Cytotoxicity, CellTiter Glo", "format": "cell-based", "conditions": "human, 22RV1 cells, 5-day proliferation"}, "[9]": {"assay": "Cytotoxicity, CellTiter Glo", "format": "cell-based", "conditions": "human, THP-1 cells, 5-day proliferation"}, "[10]": {"system": "HT1080 fibrosarcoma cells", "assay": "Cell viability of HT1080 fibrosarcoma cells", "format": "cell-based", "conditions": "48 h, 0-10,000 nM"}, "[11]": {"assay": "PK/PD study, plasma and tissue concentrations", "format": "in vivo, SCID/bg mice", "conditions": "30 mg/kg/day osmotic mini-pump, samples at 2, 7, 14 days", "text": "Specifically, subcutaneous MV4;11 xenografts were implanted in SCID/bg mice and allowed to grow to 200 mm^3. […] In particular, by day 14, dimethylation of lysine 9 of histone H3 in the tumor tissue was reduced by 46 percent as compared to the vehicle."}, "[12]": {"assay": "Cytotoxicity, CellTiter Glo", "format": "cell-based", "conditions": "human, KMS11 cells, 5-day proliferation"}, "[13]": {"assay": "Cytotoxicity, CellTiter Glo", "format": "cell-based", "conditions": "human, Kasume-1 cells, 5-day proliferation"}, "[14]": {"assay": "Cytotoxicity, CellTiter Glo", "format": "cell-based", "conditions": "human, MHH-65-1 cells, 7-day proliferation, neural crest derived lines"}, "[15]": {"assay": "Cytotoxicity, CellTiter Glo", "format": "cell-based", "conditions": "A-201 cells, 12-day proliferation, neural crest derived lines"}, "[16]": {"assay": "Cytotoxicity, CellTiter Glo", "format": "cell-based", "conditions": "human, SKBR3 cells, 5-day proliferation"}, "[17]": {"system": "HL-60 acute promyelocytic cells", "assay": "Differentiation, proliferation, viability and cell cycle of HL-60 cells, 4 days", "format": "cell-based", "conditions": "0-10 μM", "protocol": "Cells were then fixed, stained with an anti-CD11b antibody and analyzed by flow cytometry (FIG. 6A).\nCell cycle analysis (PI staining) of HL-60 cells following the 4 day treatment at the indicated concentrations (i.e., 0 μM, 0.1 μM, 0.3 μM, 1 μM, 3 μM, and 10 μM) was also performed (FIG. 6C)."}, "[18]": {"system": "H3K9me2", "assay": "Cellular immunostaining (In-Cell Western), H3K9Me2 antibody immunofluorescence in PC3 cells", "format": "cell-based, human", "conditions": "for H3K9me2 % inhibition, single well of triplicate / inhibition at 0.03 µM / inhibition at 0.1 µM / inhibition at 0.3 µM / inhibition at 1 µM / inhibition at 3 µM: 72 hours; for inhibition at 0.03 µM / inhibition at 0.1 µM / inhibition at 0.3 µM / inhibition at 1 µM / inhibition at 3 µM: Homo sapiens, PC-3, 72 h", "protocol": "For comparison, the known G9a inhibitor UNC0638 (see structure in FIG. 1) was evaluated in this study concurrently.\nHuman PC3 cells (ATCC, Manassas, Va.) were grown in RPMI+10% Fetal Bovine Serum and plated at 5,000 cells per well in a 96-well plate. The following day compounds and DMSO controls were added in triplicate at the indicated concentrations. Cells were fixed following incubation at 37° C. for 72 hours with 10% formaldehyde and then permeabilized with 0.1% Triton X-100. Cells were then washed with PBS and blocked with 0.1% BSA/PBS solution. Mouse anti-H3K9me2 (1:200, AbCam #1220, Cambridge, Mass.) and rabbit anti-Histone H3 (1:500, Cell Signaling Technology #4499, Danvers, Mass.) primary antibodies in 0.3% BSA were then added together to each well and incubated overnight at 4° C. The following day cells were washed in PBS-T (PBS with 0.1% Tween) followed by addition of anti-mouse (IR800) and anti-rabbit (IR700) secondary antibodies (LI-COR Biosciences, Lincoln, Nebr.) and incubated for one hour at room temperature. Cells were then washed with PBS-T followed by PBS and liquid was removed from all wells. The plate was scanned using both the 700 nm (anti-rabbit detection) and 800 nm (anti-mouse detection) channels on the Odyssey Imaging System (LI-COR Biosciences, Lincoln, Nebr.). Data was quantified using the LI-COR imaging suite and graphed as % inhibition H3K9me2/total H3/well compared to DMSO control wells. Wells treated in triplicate were averaged for each indicated concentration and error bars represent the standard deviation (n=3)."}, "[19]": {"assay": "Cytotoxicity, CellTiter Glo", "format": "cell-based", "conditions": "human, RPMI8226 cells, 5-day proliferation"}, "[20]": {"assay": "Cytotoxicity, CellTiter Glo", "format": "cell-based", "conditions": "human, K562 cells, 5-day proliferation"}, "[21]": {"system": "subcutaneous MV4;11 xenografts", "assay": "In vivo efficacy study, MV4;11 xenograft tumor volume", "design": "species or system SCID/bg mice", "conditions": "30 mg/kg/day osmotic mini-pump for 14 days, compared to vehicle", "protocol": "The efficacy of the compound of Example 7 was further examined by monitoring tumor volume during treatment with the compound of Example 7. Subcutaneous MV4;11 xenografts were implanted in SCID/bg mice and allowed to grow to 200 mm^3. […] Tumors were measured at the indicated time points (i.e., from 20 days to 55 days post-inoculation of the mice with the MV4;11 cells) and tumor growth was plotted as a function of time (FIG. 9)."}, "[22]": {"assay": "Cytotoxicity, CellTiter Glo", "format": "cell-based", "conditions": "human, RS4;11 cells, 5-day proliferation"}, "[23]": {"assay": "Cytotoxicity, CellTiter Glo", "format": "cell-based", "conditions": "human, L-363 cells, 5-day proliferation"}, "[24]": {"assay": "Cytotoxicity, CellTiter Glo", "format": "cell-based", "conditions": "human, DaoY cells, 7-day proliferation, neural crest derived lines"}}, "note": "Where “and” joins values, the source holds several entries; their conditions need not be identical. Identical values can stand only once. Like-named read-outs stand apart in the source and are kept apart here.", "data": [{"compound": "COc1cc2c(cc1OCCCN1CCCC1)N=C(N)C21CCC1", "note": "[Example 7, 5′-methoxy-6′-(3-(pyrrolidin-1-yl)propoxy)spiro[cyclobutane-1,3′-indol]-2′-amine]", "values": [{"measurement": "H3K9me2 reduction compared with UNC0638", "setting": "[1]", "result": "equivalent effects on H3K9me2 reduction"}, {"measurement": "IC50 at 7 day", "setting": "[2]", "result": "> 10", "unit": "µM"}, {"measurement": "IC50 at 7 day", "setting": "[3]", "result": 9.7, "unit": "µM"}, {"measurement": "IC50 at 5 day", "setting": "[4]", "result": "> 10", "unit": "µM"}, {"measurement": "IC50 at 7 day", "setting": "[5]", "result": "> 10", "unit": "µM"}, {"measurement": "IC50 at 7 day", "setting": "[6]", "result": "> 10", "unit": "µM"}, {"measurement": "IC50 at 5 day", "setting": "[7]", "result": "> 10", "unit": "µM"}, {"measurement": "IC50 at 5 day", "setting": "[8]", "result": "> 10", "unit": "µM"}, {"measurement": "IC50 at 5 day", "setting": "[9]", "result": "> 10", "unit": "µM"}, {"measurement": "cytotoxicity compared with UNC0638", "setting": "[10]", "result": "reduced cytotoxicity"}, {"measurement": "accumulation in tumor tissue (as well as liver and muscle tissue)", "setting": "[11]", "result": "significant accumulation"}, {"measurement": "IC50 at 5 day", "setting": "[12]", "result": "> 10", "unit": "µM"}, {"measurement": "IC50 at 5 day", "setting": "[13]", "result": "> 10", "unit": "µM"}, {"measurement": "IC50 at 7 day", "setting": "[14]", "result": "> 10", "unit": "µM"}, {"measurement": "IC50 at 12 day", "setting": "[15]", "result": "> 10", "unit": "µM"}, {"measurement": "IC50 at 5 day", "setting": "[16]", "result": "> 10", "unit": "µM"}, {"measurement": "cell cycle analysis (PI staining)", "setting": "[17]", "result": "increased numbers of cells were in the G1 phase"}, {"measurement": "cell proliferation (CellTiter Glo)", "setting": "[17]", "result": "inhibited proliferation of the HL-60 cells"}, {"measurement": "cell viability (trypan blue exclusion)", "setting": "[17]", "result": "largely unaffected"}, {"measurement": "differentiation (CD11b, flow cytometry)", "setting": "[17]", "result": "induced differentiation of the HL-60 cells"}, {"measurement": "reduction of cellular levels of H3K9Me2", "setting": "[18]; 3 μM", "result": "~50", "unit": "%"}, {"measurement": "H3K9me2 % inhibition, single well of triplicate", "setting": "[18]; 0.03 uM", "result": "15.08% and 10.18%"}, {"measurement": "H3K9me2 % inhibition, single well of triplicate", "setting": "[18]; 0.1 uM", "result": "24.63% and 27.83%"}, {"measurement": "H3K9me2 % inhibition, single well of triplicate", "setting": "[18]; 0.3 uM", "result": "34.47% and 40.35%"}, {"measurement": "H3K9me2 % inhibition, single well of triplicate", "setting": "[18]; 1 uM", "result": "43.83% and 45.11%"}, {"measurement": "H3K9me2 % inhibition, single well of triplicate", "setting": "[18]; 3 uM", "result": "47.77% and 48.92%"}, {"measurement": "inhibition at 0.03 µM", "setting": "[18]; 0.03 uM, n=3, read-out: H3K9me2 % inhibition, average", "result": 12, "unit": "%"}, {"measurement": "inhibition at 0.03 µM", "setting": "[18]; 0.03 uM, read-out: H3K9me2 % inhibition, single well of triplicate", "result": 10.8, "unit": "%"}, {"measurement": "inhibition at 0.1 µM", "setting": "[18]; 0.1 uM, n=3, read-out: H3K9me2 % inhibition, average", "result": 24.3, "unit": "%"}, {"measurement": "inhibition at 0.1 µM", "setting": "[18]; 0.1 uM, read-out: H3K9me2 % inhibition, single well of triplicate", "result": 20.6, "unit": "%"}, {"measurement": "inhibition at 0.3 µM", "setting": "[18]; 0.3 uM, n=3, read-out: H3K9me2 % inhibition, average", "result": 37.1, "unit": "%"}, {"measurement": "inhibition at 0.3 µM", "setting": "[18]; 0.3 uM, read-out: H3K9me2 % inhibition, single well of triplicate", "result": 36.6, "unit": "%"}, {"measurement": "inhibition at 1 µM", "setting": "[18]; 1 uM, n=3, read-out: H3K9me2 % inhibition, average", "result": 44.4, "unit": "%"}, {"measurement": "inhibition at 1 µM", "setting": "[18]; 1 uM, read-out: H3K9me2 % inhibition, single well of triplicate", "result": 44.2, "unit": "%"}, {"measurement": "inhibition at 3 µM", "setting": "[18]; 3 uM, n=3, read-out: H3K9me2 % inhibition, average", "result": 47.5, "unit": "%"}, {"measurement": "inhibition at 3 µM", "setting": "[18]; 3 uM, read-out: H3K9me2 % inhibition, single well of triplicate", "result": 45.9, "unit": "%"}, {"measurement": "levels of total histone 3, H3K27Me3, H3K36Me2, H3K4me2, H3K4me3 and H3K9me3", "setting": "[18]; similar conditions", "result": "unaltered"}, {"measurement": "cell viability as measured by total histone H3", "setting": "[18]; versus no treatment", "result": "No difference in cell viability"}, {"measurement": "IC50 at 5 day", "setting": "[19]", "result": "> 10", "unit": "µM"}, {"measurement": "IC50 at 5 day", "setting": "[20]", "result": "> 10", "unit": "µM"}, {"measurement": "tumor growth (tumor volume)", "setting": "[21]", "result": "growth inhibition of the tumors"}, {"measurement": "IC50 at 5 day", "setting": "[22]", "result": "> 10", "unit": "µM"}, {"measurement": "IC50 at 5 day", "setting": "[23]", "result": "> 10", "unit": "µM"}, {"measurement": "IC50 at 7 day", "setting": "[24]", "result": "> 10", "unit": "µM"}]}]}
